This is an account of results in paper PMC9605770, “Molecular docking and antihypertensive effects of a novel angiotensin-I converting enzyme inhibitory peptide from yak bone” (Frontiers in Nutrition, 2022).

Where two headings read alike, the source gives them in different places. Where a SMILES comes first, the peptide text is derived from it.

Data set [1] can be described thus: In vitro gastrointestinal digestion of the peptide. Type of data set: in vitro ADME. The method, then: Gastrointestinal digestion was evaluated according to the method of Dang et al. ([15]) and Mulet-Cabero et al. ([18]) with minor modification. Simulated gastric juice (pH 2.0) and simulated intestinal fluid mixture (pH 7.6) were added to peptide solution and incubated at 37°C for 2 h, respectively.

In data set [2] the test system is spontaneously hypertensive rats (SHRs). Nature of the data set: Antihypertensive effect in SHRs (tail-cuff SBP). The following applies: oral, positive control group, 10 mg/kg BW, n = 6 per group. Type of data set: in vivo, rat. The method, then:
The systolic blood pressure (SBP) changes in the SHRs were measured by the tail-cuff method to determine the antihypertensive effect of ser-ala-ser-val-ile-pro-val-ser-ala-val-arg-ala (SASVIPVSAVRA) in vivo. Twenty female SHRs, weighing 230 ± 15 g and the SBP exceeding 190 mmHg, were obtained from Beijing Vital River Laboratory Animal Technology Co., Ltd. (China).
The SHRs were free to eat and drink at 25 ± 4°C and a 40 ± 6% humidity. To get the rats to adapt to the environment, the systolic blood pressure was measured once a day for 1 week. After a week of adaptation, the SHRs were randomly divided into three groups with each group containing 6 SHRs: the control group (sterilized water), captopril group (10 mg/kg captopril BW), SASVIPVSAVRA (30 mg/kg SASVIPVSAVRA BW). The effect of ACE inhibitors on SBP were measured by the Softron BP non-invasive blood pressure monitor (Softron BP-2000, Tokyo, Japan) at 0, 2, 4, and 6 h after oral administration ([1]), The measurements were repeated five times, the recordings were reported as mean ± standard deviation (SD). All animal procedures used in this trial were approved by the Institutional Animal Care and Use Committee of Hangzhou Medical College (Approval No. ZJCLA-IACUC-20010014).

Data set [3] relates to ACE. The following applies: read-out: IC50 of ACE inhibition, cited from earlier work. The text has this:
Therefore, it was meaningful to study the ACE inhibitory activity of SASVIPVSAVRA. || Generally, the presence of amino acids (Val, Ile) with hydrophobic branches would increase the ACE inhibitory activity ([26]). Therefore, the Val residue and Ile residue in SASVIPVSAVRA may contribute to the ACE activity of the peptide. […] The peptide SASVIPVSAVRA isolated from the yak bone hydrolysate also contained the tripeptide above-mentioned (VIP). The ACE inhibitory activity may also be due to the presence of ACE inhibitor VIP in its structure. Howev ...

For data set [4], the target named is T1, angiotensin-converting enzyme (ACE) (UniProt P12822).
T1 sequence: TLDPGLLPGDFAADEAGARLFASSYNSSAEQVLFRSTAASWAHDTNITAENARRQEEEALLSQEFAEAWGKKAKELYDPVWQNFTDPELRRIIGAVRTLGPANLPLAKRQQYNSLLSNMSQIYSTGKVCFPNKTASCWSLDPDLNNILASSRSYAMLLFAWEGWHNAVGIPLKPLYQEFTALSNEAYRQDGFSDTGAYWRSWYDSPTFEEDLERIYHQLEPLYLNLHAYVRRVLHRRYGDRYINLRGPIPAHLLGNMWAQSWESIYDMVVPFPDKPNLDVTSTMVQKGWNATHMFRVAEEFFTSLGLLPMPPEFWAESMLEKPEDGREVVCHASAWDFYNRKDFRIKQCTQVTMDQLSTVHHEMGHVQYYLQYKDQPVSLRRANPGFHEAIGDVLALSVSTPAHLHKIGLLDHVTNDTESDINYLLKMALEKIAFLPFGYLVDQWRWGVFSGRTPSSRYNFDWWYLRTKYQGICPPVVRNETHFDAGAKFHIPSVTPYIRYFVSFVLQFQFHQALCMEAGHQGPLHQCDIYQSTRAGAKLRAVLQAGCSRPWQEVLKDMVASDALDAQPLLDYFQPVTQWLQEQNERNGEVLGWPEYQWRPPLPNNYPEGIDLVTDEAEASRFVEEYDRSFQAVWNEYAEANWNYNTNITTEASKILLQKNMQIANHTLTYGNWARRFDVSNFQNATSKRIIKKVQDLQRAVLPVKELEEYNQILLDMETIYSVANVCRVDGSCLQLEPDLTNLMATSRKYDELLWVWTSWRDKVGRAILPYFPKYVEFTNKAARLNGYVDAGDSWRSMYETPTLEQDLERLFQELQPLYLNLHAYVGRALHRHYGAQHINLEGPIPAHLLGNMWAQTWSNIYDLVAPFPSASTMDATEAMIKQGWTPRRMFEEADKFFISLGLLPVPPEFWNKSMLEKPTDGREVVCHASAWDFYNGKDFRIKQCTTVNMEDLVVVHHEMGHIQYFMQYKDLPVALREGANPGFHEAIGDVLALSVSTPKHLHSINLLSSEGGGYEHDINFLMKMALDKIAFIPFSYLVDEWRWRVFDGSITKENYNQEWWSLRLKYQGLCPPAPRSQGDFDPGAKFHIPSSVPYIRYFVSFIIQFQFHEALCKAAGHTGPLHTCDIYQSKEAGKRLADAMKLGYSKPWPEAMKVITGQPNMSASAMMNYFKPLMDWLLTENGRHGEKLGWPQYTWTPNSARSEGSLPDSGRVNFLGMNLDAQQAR

On to `CC[C@H](C)[C@H](NC(=O)[C@@H](NC(=O)[C@H](CO)NC(=O)[C@H](C)NC(=O)[C@@H](N)CO)C(C)C)C(=O)N1CCC[C@H]1C(=O)N[C@H](C(=O)N[C@@H](CO)C(=O)N[C@@H](C)C(=O)N[C@H](C(=O)N[C@@H](CCCNC(=N)N)C(=O)N[C@@H](C)C(=O)O)C(C)C)C(C)C` [SASVIPVSAVRA, ser-ala-ser-val-ile-pro-val-ser-ala-val-arg-ala] (H-SASVIPVSAVRA-OH), for which, in data set [1] (simulated gastric juice pH 2.0 and simulated intestinal fluid pH 7.6, 37°C, 2 h each, MS (TIC chromatography)), the “Digestive stability (peak of parent peptide in digested samples)” value was “easily digested”.
As to `CC[C@H](C)[C@H](NC(=O)[C@@H](NC(=O)[C@H](CO)NC(=O)[C@H](C)NC(=O)[C@@H](N)CO)C(C)C)C(=O)N1CCC[C@H]1C(=O)N[C@H](C(=O)N[C@@H](CO)C(=O)N[C@@H](C)C(=O)O)C(C)C` [SASVIPVSA] (H-SASVIPVSA-OH), the “Metabolite found in the digestion sample” value in data set [1] (digestion of SASVIPVSAVRA, simulated gastric juice pH 2.0 and intestinal fluid pH 7.6, 37°C, peak area by MS) is “main metabolite”.
As for `C[C@H](CS)C(=O)N1CCC[C@H]1C(=O)O` [captopril], in data set [2], the “Maximum reduction of systolic blood pressure” value was 14.9%.
With IVVE, in data set [3] (reported peptides), the IC50 (in general, the concentration needed to halve the response being measured) is 315 µM.
Take QLLLQQ: the IC50 in data set [3] (reported peptides) is 75 µM.
SGGSYADELVSTAK: the IC50 in data set [3] (reported ACE peptide) was 0.093 µM.
Molecule SASVIPVSAVRA [ser-ala-ser-val-ile-pro-val-ser-ala-val-arg-ala (…)] had an IC50 of ACE inhibitory activity (substrate HHL, HEPES buffer with 300 mM NaCl, pH 8.3, 37°C, HPLC) in data set [4] of 54.2 μM.
